Test results taken from US20240383875A1, “Benzimidazole Pyridine Derivatives” (Hoffmann-La Roche Inc., priority 2022, published 2024).

Tests used:
Format in all cases: biochemical
SIK1 = SIK1 (Homo sapiens, UniProt P57059); assay: Enzymatic activity assay SIK1, RapidFire mass spectrometry (phosphorylation of CHK-peptide); conditions: RapidFire MS, inhibition of SIK1; read-out: SIK1 RF IC50
Summary of the method: (§1)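 Human SIK1/2/3, 5/0.5/1.5 nM; 12.5 mM HEPES pH 7.0, 10 mM Mg acetate, 0.005% BSA. 30 min cpd pre-inc, + CHK-peptide (10 μM soln) + ATP (100 μM soln), 45 min RT. Formic acid stop; RF-MS phospho ratio; IC50.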

SIK3 = SIK3 (Homo sapiens, UniProt Q9Y2K2); assay: Enzymatic activity assay SIK3, RapidFire mass spectrometry (phosphorylation of CHK-peptide); conditions: RapidFire MS, inhibition of SIK3; read-out: SIK3 RF IC50
Summary of the method: as §1

SIK2 = SIK2 (Homo sapiens, UniProt Q9H0K1); assay: Enzymatic activity assay SIK2, RapidFire mass spectrometry (phosphorylation of CHK-peptide); conditions: RapidFire MS, inhibition of SIK2; read-out: SIK2 RF IC50
Summary of the method: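 Read-out is the summed phospho-species fraction of CHK-peptide by RapidFire mass spectrometry, normalized between DMSO and 1 μM YKL-05-099. The reaction used 0.5 nM SIK2, 100 μM ATP and 10 μM peptide solutions in HEPES pH 7.0/10 mM magnesium acetate for 45 min at ambient temperature.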

SIK3, sequence (Q9Y2K2 whole entry): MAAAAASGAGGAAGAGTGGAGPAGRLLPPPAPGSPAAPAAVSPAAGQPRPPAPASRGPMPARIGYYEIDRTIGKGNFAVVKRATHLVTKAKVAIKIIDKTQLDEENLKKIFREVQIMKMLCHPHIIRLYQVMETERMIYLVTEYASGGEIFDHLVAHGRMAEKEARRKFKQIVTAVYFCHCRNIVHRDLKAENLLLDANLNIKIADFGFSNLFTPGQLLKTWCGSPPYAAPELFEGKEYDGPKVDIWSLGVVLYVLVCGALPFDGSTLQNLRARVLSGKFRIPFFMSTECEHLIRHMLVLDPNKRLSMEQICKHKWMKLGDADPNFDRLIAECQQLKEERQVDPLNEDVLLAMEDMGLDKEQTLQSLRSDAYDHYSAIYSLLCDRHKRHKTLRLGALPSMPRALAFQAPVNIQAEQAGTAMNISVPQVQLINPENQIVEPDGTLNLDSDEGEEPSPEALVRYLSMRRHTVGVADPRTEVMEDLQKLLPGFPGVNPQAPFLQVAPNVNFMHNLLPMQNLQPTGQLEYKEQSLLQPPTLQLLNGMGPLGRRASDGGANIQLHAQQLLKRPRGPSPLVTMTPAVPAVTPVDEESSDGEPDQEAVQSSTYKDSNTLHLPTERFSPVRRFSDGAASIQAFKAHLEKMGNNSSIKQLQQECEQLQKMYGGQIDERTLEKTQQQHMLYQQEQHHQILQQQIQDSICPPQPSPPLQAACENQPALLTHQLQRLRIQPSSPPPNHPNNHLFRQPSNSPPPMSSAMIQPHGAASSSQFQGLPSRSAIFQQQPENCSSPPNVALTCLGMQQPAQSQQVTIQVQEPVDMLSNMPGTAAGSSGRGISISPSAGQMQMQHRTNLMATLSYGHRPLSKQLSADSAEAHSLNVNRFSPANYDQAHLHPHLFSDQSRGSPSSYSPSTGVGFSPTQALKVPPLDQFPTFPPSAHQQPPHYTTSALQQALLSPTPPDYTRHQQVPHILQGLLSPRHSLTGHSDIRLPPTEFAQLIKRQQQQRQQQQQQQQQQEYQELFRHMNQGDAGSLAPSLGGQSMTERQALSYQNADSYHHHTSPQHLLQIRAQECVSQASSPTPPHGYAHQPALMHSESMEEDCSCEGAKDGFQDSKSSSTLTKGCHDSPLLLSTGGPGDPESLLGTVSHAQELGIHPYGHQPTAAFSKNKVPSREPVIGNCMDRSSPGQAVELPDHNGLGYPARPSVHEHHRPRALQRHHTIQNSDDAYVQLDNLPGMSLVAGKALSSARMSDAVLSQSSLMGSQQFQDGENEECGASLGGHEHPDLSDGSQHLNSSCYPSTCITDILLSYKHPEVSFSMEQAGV
SIK1, sequence (P57059 whole entry): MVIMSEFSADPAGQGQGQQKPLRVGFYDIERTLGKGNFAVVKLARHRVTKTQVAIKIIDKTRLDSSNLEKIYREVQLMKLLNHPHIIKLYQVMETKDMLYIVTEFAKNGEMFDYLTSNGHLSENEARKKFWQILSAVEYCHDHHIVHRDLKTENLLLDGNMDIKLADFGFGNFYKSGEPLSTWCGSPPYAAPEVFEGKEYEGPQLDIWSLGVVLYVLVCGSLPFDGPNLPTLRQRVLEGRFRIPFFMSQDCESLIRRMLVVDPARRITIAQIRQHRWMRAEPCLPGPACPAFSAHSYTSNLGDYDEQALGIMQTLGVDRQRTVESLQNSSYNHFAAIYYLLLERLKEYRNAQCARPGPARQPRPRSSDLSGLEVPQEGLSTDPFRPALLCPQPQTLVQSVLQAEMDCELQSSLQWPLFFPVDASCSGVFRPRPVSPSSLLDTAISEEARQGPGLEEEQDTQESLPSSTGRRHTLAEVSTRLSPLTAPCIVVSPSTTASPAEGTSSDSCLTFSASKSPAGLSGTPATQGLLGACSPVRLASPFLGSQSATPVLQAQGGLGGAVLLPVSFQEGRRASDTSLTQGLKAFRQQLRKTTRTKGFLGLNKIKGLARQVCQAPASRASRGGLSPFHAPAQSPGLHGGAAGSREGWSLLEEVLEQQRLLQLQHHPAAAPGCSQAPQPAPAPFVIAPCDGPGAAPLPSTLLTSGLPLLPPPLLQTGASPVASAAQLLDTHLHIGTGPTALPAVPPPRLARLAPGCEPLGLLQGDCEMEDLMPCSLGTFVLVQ
SIK2, sequence (Q9H0K1 whole entry): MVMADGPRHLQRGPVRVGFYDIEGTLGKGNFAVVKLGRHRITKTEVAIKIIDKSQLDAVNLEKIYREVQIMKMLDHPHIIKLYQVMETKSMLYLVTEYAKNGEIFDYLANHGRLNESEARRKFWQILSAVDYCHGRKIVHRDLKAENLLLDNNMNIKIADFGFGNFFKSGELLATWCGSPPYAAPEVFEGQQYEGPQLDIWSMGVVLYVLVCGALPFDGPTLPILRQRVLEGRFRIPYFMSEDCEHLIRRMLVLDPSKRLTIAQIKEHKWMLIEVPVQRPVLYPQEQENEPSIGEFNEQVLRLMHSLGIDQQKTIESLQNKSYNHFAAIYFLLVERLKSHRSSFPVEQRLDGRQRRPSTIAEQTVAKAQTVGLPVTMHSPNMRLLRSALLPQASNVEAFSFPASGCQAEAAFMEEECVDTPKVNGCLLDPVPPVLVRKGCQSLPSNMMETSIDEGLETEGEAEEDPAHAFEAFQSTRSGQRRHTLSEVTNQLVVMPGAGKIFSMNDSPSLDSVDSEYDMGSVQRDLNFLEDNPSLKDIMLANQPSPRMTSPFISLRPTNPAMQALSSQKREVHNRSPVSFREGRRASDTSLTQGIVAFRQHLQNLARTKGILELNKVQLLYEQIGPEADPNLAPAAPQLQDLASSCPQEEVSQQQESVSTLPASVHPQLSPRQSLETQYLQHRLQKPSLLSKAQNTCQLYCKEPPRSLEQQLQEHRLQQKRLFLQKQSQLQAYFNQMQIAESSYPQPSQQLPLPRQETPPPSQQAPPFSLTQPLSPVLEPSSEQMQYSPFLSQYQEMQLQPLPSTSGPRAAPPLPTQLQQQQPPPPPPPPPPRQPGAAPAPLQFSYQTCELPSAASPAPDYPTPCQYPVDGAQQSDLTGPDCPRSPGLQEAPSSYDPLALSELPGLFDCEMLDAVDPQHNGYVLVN

Row | IC50 (SIK1) | IC50 (SIK3) | IC50 (SIK2) | Compound
1 | 271 nM | 2 nM | 3.9 nM | COc1cc(C(F)F)nn1-c1nc(-n2cnc3cc(Nc4ccc(C)nn4)ccc32)ccc1C(C)O (stereo not drawn) [Example 398, 1-[2-[3-(difluoromethyl)-5-methoxy-pyrazol-1-yl]-6-[5-[(6-methylpyridazin-3-yl)amino]benzimidazol-1-yl]-3-pyridyl]ethanol]
2 | 1320 nM | 4.1 nM | 8.2 nM | Cc1ccc(Nc2ccc3c(c2)ncn3-c2ccc(C(C)O)c(-n3nc(C(F)F)c(C)c3C)n2)nn1 (stereo not drawn) [Example 369, 1-[2-[3-(difluoromethyl)-4,5-dimethyl-pyrazol-1-yl]-6-[5-[(6-methylpyridazin-3-yl)amino]benzimidazol-1-yl]-3-pyridyl]ethanol]
3 | 750 nM | 5.5 nM | 25.2 nM | Cc1ccc(Nc2ccc3c(c2)ncn3-c2ccc(C(C)O)c(OC3CNCC3(F)F)n2)nn1 (stereo not drawn) [Example 393, 1-[2-(4,4-difluoropyrrolidin-3-yl)oxy-6-[5-[(6-methylpyridazin-3-yl)amino]benzimidazol-1-yl]-3-pyridyl]ethanol]
4 | 5110 nM | 37.3 nM | 150 nM | Cc1ccc(Nc2ccc3c(c2)ncn3-c2ccc(C(C)O)c(N3C[C@@H](C#N)C[C@H]3C)n2)nn1 (stereo partly drawn) [Example 254, (3S,5R)-1-[3-(1-hydroxyethyl)-6-[5-[(6-methylpyridazin-3-yl)amino]benzimidazol-1-yl]-2-pyridyl]-5-methyl-pyrrolidine-3-carbonitrile]
5 | 273 nM | 0.7 nM | 2.4 nM | Cc1ccc(Nc2ccc3c(c2)ncn3-c2ccc(C(C)O)c(N3CCC4(C3)CC4(F)F)n2)nn1 (stereo not drawn) [Example 299, 1-[2-(2,2-difluoro-5-azaspiro[2.4]heptan-5-yl)-6-[5-[(6-methylpyridazin-3-yl)amino]benzimidazol-1-yl]-3-pyridyl]ethanol]
6 | 1170 nM | 4.6 nM | 25.3 nM | Cc1ccc(Nc2ccc3c(c2)ncn3-c2ccc(C(C)O)c(N3CC(C#N)C4(CCC4)C3)n2)nn1 (stereo not drawn) [Example 359, 6-[3-(1-hydroxyethyl)-6-[5-[(6-methylpyridazin-3-yl)amino]benzimidazol-1-yl]-2-pyridyl]-6-azaspiro[3.4]octane-8-carbonitrile]
7 | 319 nM | 34.1 nM | 76 nM | Cc1cc(C#N)nn1-c1nc(-n2cnc3cc(OC4CCN(C5COC5)CC4)ccc32)ccc1C(C)O (stereo not drawn) [Example 113, 1-[3-(1-Hydroxyethyl)-6-[5-[[1-(oxetan-3-yl)-4-piperidyl]oxy]benzimidazol-1-yl]-2-pyridyl]-5-methyl-pyrazole-3-carbonitrile]
8 | 1300 nM | 2060 nM | 1040 nM | COc1cc2ncn(-c3ccc([C@@H](C)O)c(-c4ccn(C)c(=O)c4)n3)c2cc1OC [Example 42, (R)-6-(5,6-Dimethoxy-1H-benzo[d]imidazol-1-yl)-3-(1-hydroxyethyl)-1′-methyl-[2,4′-bipyridin]-2′(1′H)-one]
9 | 1120 nM | 3.4 nM | 21.4 nM | Cc1ccc(Nc2ccc3c(c2)ncn3-c2ccc(C(C)O)c(N3CC(C(F)F)C4(CC4)C3)n2)nn1 (stereo not drawn) [Example 325, 1-[2-[7-(difluoromethyl)-5-azaspiro[2.4]heptan-5-yl]-6-[5-[(6-methylpyridazin-3-yl)amino]benzimidazol-1-yl]-3-pyridyl]ethanol]
10 | 5620 nM | 80.4 nM | 46.8 nM | Cc1ccc(Nc2ccc3c(c2)ncn3-c2ccc([C@H](C)O)c(-c3cn(CC(F)(F)F)nc3C)n2)nn1 [Example 252, (1S)-1-[6-[5-[(6-Methylpyridazin-3-yl)amino]benzimidazol-1-yl]-2-[3-methyl-1-(2,2,2-trifluoroethyl)pyrazol-4-yl]-3-pyridyl]ethanol]
11 | 87 nM | 213 nM | 70 nM | Cc1cc(C#N)nn1-c1nc(-n2cnc3cc(F)c(N[C@@H]4CNC[C@@H]4F)cc32)ccc1C(C)O (stereo in doubt) [Example 188, 1-[6-[5-fluoro-6-[[(3R,4S)-4-fluoropyrrolidin-3-yl]amino]benzimidazol-1-yl]-3-(1-hydroxyethyl)pyridin-2-yl]-5-methylpyrazole-3-carbonitrile]
12 | 462 nM | 1.8 nM | 2.3 nM | Cc1ccc(Nc2cc3ncn(-c4ccc(C(C)O)c(-n5nc(C(F)F)cc5C(F)F)n4)c3cc2F)nn1 (stereo not drawn) [Example 387, 1-[2-[3,5-bis(difluoromethyl)pyrazol-1-yl]-6-[6-fluoro-5-[(6-methylpyridazin-3-yl)amino]benzimidazol-1-yl]-3-pyridyl]ethanol]
13 | 29 nM | 139 nM | 28.6 nM | Cc1cc(C#N)nn1-c1nc(-n2cnc3ccc(-c4ccn(C)c(=O)n4)cc32)ccc1C(C)O (stereo not drawn) [Example 336, 1-[3-(1-hydroxyethyl)-6-[6-(1-methyl-2-oxo-pyrimidin-4-yl)benzimidazol-1-yl]-2-pyridyl]-5-methyl-pyrazole-3-carbonitrile]
14 | 193 nM | 1.2 nM | 2.4 nM | Cc1ccc(Nc2ccc3c(c2)ncn3-c2ccc(C(C)O)c(-c3cnn(CC4CC4)c3C)n2)nn1 (stereo not drawn) [Example 272, 1-[2-[1-(Cyclopropylmethyl)-5-methyl-pyrazol-4-yl]-6-[5-[(6-methylpyridazin-3-yl)amino]benzimidazol-1-yl]-3-pyridyl]ethanol; formic acid]
15 | 10 nM | 235 nM | 19.6 nM | Cc1cc(C#N)nn1-c1nc(-n2cnc3ccc(N4CCCC45COC5)cc32)ccc1C(C)O (stereo not drawn) [Example 295, 1-[3-(1-hydroxyethyl)-6-[6-(2-oxa-5-azaspiro[3.4]octan-5-yl)benzimidazol-1-yl]-2-pyridyl]-5-methyl-pyrazole-3-carbonitrile]
16 | 53 nM | 0.5 nM | 0.9 nM | Cc1cc(C#N)nn1-c1nc(-n2cnc3cc(Nc4ccc(C(F)F)nn4)ccc32)ccc1C(C)O (stereo not drawn) [Example 90, 1-[6-[5-[[6-(Difluoromethyl)pyridazin-3-yl]amino]benzimidazol-1-yl]-3-(1-hydroxyethyl)-2-pyridyl]-5-methyl-pyrazole-3-carbonitrile]
17 | 1760 nM | 8.6 nM | 39.9 nM | Cc1ccc(Nc2ccc3c(c2)ncn3-c2ccc(C(C)O)c(-c3cc(F)ncc3C)n2)nn1 (stereo not drawn) [Example 168, 1-[2-(2-Fluoro-5-methyl-4-pyridyl)-6-[5-[(6-methylpyridazin-3-yl)amino]benzimidazol-1-yl]-3-pyridyl]ethanol]
18 | 20 nM | 446 nM | 44.6 nM | Cc1cc(C#N)nn1-c1nc(-n2cnc3ccc(-c4ccc5c(n4)C(=O)N(C)C5)cc32)ccc1C(C)O (stereo not drawn) [Example 365, 1-[3-(1-hydroxyethyl)-6-[6-(6-methyl-7-oxo-5H-pyrrolo[3,4-b]pyridin-2-yl)benzimidazol-1-yl]-2-pyridyl]-5-methyl-pyrazole-3-carbonitrile]

Row | Compound | IC50 (SIK1) | IC50 (SIK3) | IC50 (SIK2)
19 | 1-[6-[5-[[5-(azetidin-1-yl)pyridazin-3-yl]amino]-6-fluoro-benzimidazol-1-yl]-2-[3-(difluoromethyl)-5-methyl-pyrazol-1-yl]-3-pyridyl]ethanol [Example 390] | 5890 nM | 16 nM | 27.2 nM
20 | N-[1-[6-[3-(difluoromethyl)-5-methyl-pyrazol-1-yl]-5-(1-hydroxyethyl)-2-pyridyl]-6-fluoro-benzimidazol-5-yl] cyclopropanecarboxamide [Example 361] | 321 nM | 51.1 nM | 63.9 nM
